The record followed here is patent US11458144B1, “Methods for using 5-HMF analogs with increased solubility to inhibit or reverse RBC sickling” (King Abdulaziz University, priority 2021, dated 2022).

The test system of one data set is SS RBCs. The experiment in a line: Antisickling study (RBC morphology) in SS blood under hypoxia. To be noted: 2 mM, SS blood hematocrit 20%, 2.5% O2, 37° C. The format is cell-based, human. The method, then: (§1) The effect of the MMA compounds and positive control 5-HMF on RBC sickling, Hb modification, and Hb oxygen equilibrium was studied utilizing SS blood following previous procedure.^[27]
For the antisickling study, SS blood (hematocrit 20%) were incubated under air in the absence or presence of all the MMA compounds (0.5 mM, 1 mM and 2 mM) at 37° C. for 1 h, followed by incubating the mixture under hypoxic conditions (2.5% O2) at 37° C. for 2 h. Aliquots with fixed 2% glutaraldehyde solution and under anaerobic condition were subjected to microscopic morphological analysis.^[11]
(§2) Using homozygous sickle (SS) blood from patients, the MMA compounds (MMA502, MMA503, MMA504, MMA505, and MMA509 were tested with 5-HMF as control for Hb adduct formation, effect on Hb affinity for oxygen and corresponding antisickling activities (RBC morphology study) using previously published protocols.^14,15

For data set [1], the target named is T1, Hb (Homo sapiens, UniProt P68871+P69905, E7V).
T1 construct: Using homozygous sickle (SS) blood from patients; endogenous in cells; host or cells: red blood cells of homozygous SS patient blood (hematocrit 20%); clarified lysates measured after incubation
Briefly: Oxygen equilibrium study (P50 shift) of lysates from SS blood, Hemox Analyzer. The format is cell-based. To be noted: 2 mM, SS RBCs. The method, then: as §1
For the oxygen equilibrium study, about 100 μL aliquot of clarified lysate of residual samples from the above antisickling study was added to 4 mL of 0.1 M potassium phosphate buffer, pH 7.0, in cuvettes and subjected to hemoximetry analysis using Hemox™ Analyzer (TCS Scientific Corp., New Hope, Pa.) to assess P50 shift, which is the partial pressure of oxygen (PO2) at which 50% of Hb is saturated with oxygen (SO2). Degree of Hb O2 affinity shift (ΔP50) was expressed as percentage fractions of control DMSO-treated samples.
as §2

In data set [2] the test system is human cytochrome P450 (CYP) enzymes. Briefly: In vitro CYP inhibition, panel of seven enzymes (overall statement). Conditions: 0.1 to 100 μM; pooled human liver microsomes. The format is in vitro ADME. The method, then: (§3) The probe substrates include tacrine (CYP1A2), amodiaquine (CYP2C8), tolbutamide (CYP2C9), mephenytoin (CYP2C19), dextromethorphan (CYP2D6), midazolam (CYP3A4), testosterone (CYP3A4), and bupropion (CYP2B6). […] The assays were performed in duplicate in 96-well plates at 37° C. for 10-60 minutes. The reaction was terminated with addition of methanol, followed by incubation at 4° C. for 10 min and centrifuged at 4° C. for 10 min.

The target in a further data set is T2, CYP1A2 (Homo sapiens, UniProt P05177).
T2 construct: using pooled human liver microsomes as previously published; from tissue; host or cells: pooled human liver microsomes
T2 sequence (P05177 1-516): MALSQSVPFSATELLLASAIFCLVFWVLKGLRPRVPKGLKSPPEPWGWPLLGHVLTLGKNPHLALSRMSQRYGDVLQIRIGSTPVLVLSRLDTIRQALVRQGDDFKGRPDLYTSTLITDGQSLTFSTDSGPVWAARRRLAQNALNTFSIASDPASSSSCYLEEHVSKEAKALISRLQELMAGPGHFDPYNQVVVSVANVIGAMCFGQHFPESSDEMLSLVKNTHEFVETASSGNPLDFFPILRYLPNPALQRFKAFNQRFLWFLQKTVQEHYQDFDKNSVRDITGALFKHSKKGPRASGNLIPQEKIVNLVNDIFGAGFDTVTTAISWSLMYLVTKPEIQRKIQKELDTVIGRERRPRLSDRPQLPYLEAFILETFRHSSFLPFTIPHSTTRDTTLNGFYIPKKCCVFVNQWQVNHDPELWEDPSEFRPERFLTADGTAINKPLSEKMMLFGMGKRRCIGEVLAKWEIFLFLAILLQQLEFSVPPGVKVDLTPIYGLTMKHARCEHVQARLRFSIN
Briefly: In vitro CYP inhibition, pooled human liver microsomes. It counts as in vitro ADME. Conditions: substrate Tacrine. How it is done: as §3

Another data set has as its target T3, CYP2C8 (Homo sapiens, UniProt P10632).
T3 construct: using pooled human liver microsomes as previously published; from tissue; host or cells: pooled human liver microsomes
T3 sequence (P10632 1-490): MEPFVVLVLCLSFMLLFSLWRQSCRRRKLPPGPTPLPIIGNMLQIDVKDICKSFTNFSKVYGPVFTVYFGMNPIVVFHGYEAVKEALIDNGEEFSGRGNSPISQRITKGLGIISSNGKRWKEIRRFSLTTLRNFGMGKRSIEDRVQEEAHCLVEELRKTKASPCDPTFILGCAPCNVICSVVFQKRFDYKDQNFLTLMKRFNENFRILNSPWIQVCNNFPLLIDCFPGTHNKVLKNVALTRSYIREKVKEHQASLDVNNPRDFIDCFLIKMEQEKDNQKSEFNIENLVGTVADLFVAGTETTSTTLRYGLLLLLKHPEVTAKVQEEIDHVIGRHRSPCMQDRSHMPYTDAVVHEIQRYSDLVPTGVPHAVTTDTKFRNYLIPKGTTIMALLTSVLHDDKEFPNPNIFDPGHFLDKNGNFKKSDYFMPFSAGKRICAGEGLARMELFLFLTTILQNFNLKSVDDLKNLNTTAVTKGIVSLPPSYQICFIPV
Described as above. The format is in vitro ADME. Conditions: substrate Amodiaquine. How it is done: as §3

For data set [3], the target named is T1, Hb. Briefly: Hb adduct formation (Hb modification) by cation-exchange HPLC, SS blood lysates. The format is binding. To be noted: 2 mM, SS RBCs.
Source text: as §1
The Hb adduct formation study also used clarified lysates that were subjected to a cation-exchange HPLC (Hitachi D-7000 Series, Hitachi Instruments, Inc., San Jose, Calif.), and a weak cation-exchange column (Poly CAT A: 30 mm×4.6 mm, Poly LC, Inc., Columbia, Md.).
as §2

With `O=Cc1ccc(CO)o1` [Compound 5-HMF, 5-hydroxymethylfurfural, reference compound], the “% Sickling inhibition” value in the data set on SS RBCs was 21.4 ± 0.0%. Besides, in the data set with SS RBCs (Homo sapiens, read-out: % Sickling inhibition), the inhibition at 2000 µM is 21%. In addition, the entries for the “% Hb-O2 affinity (P50 shift vs DMSO control)” value on Hb [1] and at Hb [1] (listed as 5HMF) were 27% and 27.2 ± 4.9%, respectively. The “inhibition of liver CYP isozymes” value in data set [2] was “no inhibition”. For the same compound, the IC50 against CYP1A2 and at CYP2C8 was greater than 100 µM in each case. Further, the figures for the “% Hb-modification (adduct formation)” value on Hb [3] and at Hb [3] (listed as 5HMF) were 33% and 33.8 ± 11.7%, respectively.
